# In patent US10167262B2, “Herbicidal substituted 3-arylpyrazoles” (FMC CORPORATION, priority 2014, dated 2019):
# Columns and labels:
# Experiment in all cases: Test C postemergence greenhouse test, plant response rating 0-100
# Format in all cases: in vivo
# [1] = test system: cocklebur (common cocklebur, Xanthium strumarium); conditions: for Plant response rating, Cocklebur: scale 0 to 100
# In short: (§1)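 Formulated compounds applied postemergence; plants 1- to 4-leaf stage. Evaluated visually vs. untreated controls after roughly two weeks (13–15 d) under greenhouse conditions; 100 denotes complete control.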
# [2] = test system: green foxtail (Setaria viridis); conditions: for Plant response rating, Foxtail, Green: scale 0 to 100
# In short: as §1
# [3] = test system: bermudagrass (Cynodon dactylon); conditions: for Plant response rating, Bermudagrass: scale 0 to 100
# In short: as §1
# [4] = test system: woolly cupgrass (Eriochloa villosa); conditions: for Plant response rating, Cupgrass, Woolly: scale 0 to 100
# In short: as §1
# [5] = test system: goosegrass (Eleusine indica); conditions: for Plant response rating, Goosegrass: scale 0 to 100
# In short: as §1
# [6] = test system: windgrass (Apera spica-venti); conditions: for Plant response rating, Windgrass: scale 0 to 100
# In short: as §1
# [7] = test system: downy bromegrass (Bromus tectorum); conditions: for Plant response rating, Bromegrass, Downy: scale 0 to 100
# In short: as §1
# [8] = test system: winter barley (Hordeum vulgare); conditions: for Plant response rating, Barley: scale 0 to 100
# In short: as §1
# [9] = test system: surinam grass (Brachiaria decumbens); conditions: for Plant response rating, Surinam Grass: scale 0 to 100
# In short: as §1
# [10] = test system: deadnettle (henbit deadnettle, Lamium amplexicaule); conditions: for Plant response rating, Deadnettle: scale 0 to 100
# In short: as §1
# [11] = test system: canarygrass (Phalaris minor); conditions: for Plant response rating, Canarygrass: scale 0 to 100
# In short: as §1
smiles,measurement,setting,value
C=CCn1cc(C(=O)c2ccccc2)c(-c2cc(Cl)cc(Cl)c2)n1 [Compound 60],"Plant response rating (0 to 100), Cocklebur",[1]; 31 g ai/ha,10
same,"Plant response rating (0 to 100), Cocklebur",[1]; 62 g ai/ha,15
same,"Plant response rating (0 to 100), Cocklebur",[1]; 125 g ai/ha,20
same,"Plant response rating, Cocklebur",[1]; 250 g ai/ha,50
same,"Plant response rating (0 to 100), Foxtail, Green",[2]; 31 g ai/ha,0
same,"Plant response rating (0 to 100), Foxtail, Green",[2]; 62 g ai/ha,0
same,"Plant response rating (0 to 100), Foxtail, Green",[2]; 125 g ai/ha,0
same,"Plant response rating, Foxtail, Green",[2]; 250 g ai/ha,0
same,"Plant response rating (0 to 100), Bermudagrass",[3]; 31 g ai/ha,0
same,"Plant response rating (0 to 100), Bermudagrass",[3]; 62 g ai/ha,5
same,"Plant response rating (0 to 100), Bermudagrass",[3]; 125 g ai/ha,5
same,"Plant response rating, Bermudagrass",[3]; 250 g ai/ha,5
same,"Plant response rating (0 to 100), Cupgrass, Woolly",[4]; 31 g ai/ha,0
same,"Plant response rating (0 to 100), Cupgrass, Woolly",[4]; 62 g ai/ha,0
same,"Plant response rating (0 to 100), Cupgrass, Woolly",[4]; 125 g ai/ha,5
same,"Plant response rating, Cupgrass, Woolly",[4]; 250 g ai/ha,5
same,"Plant response rating (0 to 100), Goosegrass",[5]; 31 g ai/ha,0
same,"Plant response rating (0 to 100), Goosegrass",[5]; 62 g ai/ha,0
same,"Plant response rating (0 to 100), Goosegrass",[5]; 125 g ai/ha,0
same,"Plant response rating, Goosegrass",[5]; 250 g ai/ha,0
same,"Plant response rating (0 to 100), Windgrass",[6]; 62 g ai/ha,0
same,"Plant response rating (0 to 100), Windgrass",[6]; 125 g ai/ha,0
same,"Plant response rating, Windgrass",[6]; 250 g ai/ha,0
same,"Plant response rating (0 to 100), Bromegrass, Downy",[7]; 31 g ai/ha,0
same,"Plant response rating (0 to 100), Bromegrass, Downy",[7]; 62 g ai/ha,0
same,"Plant response rating (0 to 100), Bromegrass, Downy",[7]; 125 g ai/ha,0
same,"Plant response rating, Bromegrass, Downy",[7]; 250 g ai/ha,0
same,"Plant response rating (0 to 100), Barley",[8]; 31 g ai/ha,0
same,"Plant response rating (0 to 100), Barley",[8]; 62 g ai/ha,0
same,"Plant response rating (0 to 100), Barley",[8]; 125 g ai/ha,0
same,"Plant response rating, Barley",[8]; 250 g ai/ha,0
same,"Plant response rating (0 to 100), Surinam Grass",[9]; 62 g ai/ha,0
same,"Plant response rating (0 to 100), Surinam Grass",[9]; 125 g ai/ha,0
same,"Plant response rating, Surinam Grass",[9]; 250 g ai/ha,5
same,"Plant response rating (0 to 100), Deadnettle",[10]; 31 g ai/ha,0
same,"Plant response rating (0 to 100), Deadnettle",[10]; 62 g ai/ha,0
same,"Plant response rating (0 to 100), Deadnettle",[10]; 125 g ai/ha,0
same,"Plant response rating, Deadnettle",[10]; 250 g ai/ha,0
same,"Plant response rating (0 to 100), Canarygrass",[11]; 31 g ai/ha,0
same,"Plant response rating (0 to 100), Canarygrass",[11]; 62 g ai/ha,0
same,"Plant response rating (0 to 100), Canarygrass",[11]; 125 g ai/ha,0
same,"Plant response rating, Canarygrass",[11]; 250 g ai/ha,0
"CCCn1cc(C(=O)c2ccccc2)c(-c2cc(Cl)cc(Cl)c2)n1 [Compound 61, [3-(3,5-dichlorophenyl)-1-propyl-1H-pyrazol-4-yl]phenylmethanone]","Plant response rating (0 to 100), Cocklebur",[1]; 31 g ai/ha,10
same,"Plant response rating (0 to 100), Cocklebur",[1]; 62 g ai/ha,10
same,"Plant response rating (0 to 100), Cocklebur",[1]; 125 g ai/ha,20
same,"Plant response rating, Cocklebur",[1]; 250 g ai/ha,35
same,"Plant response rating (0 to 100), Foxtail, Green",[2]; 31 g ai/ha,0
same,"Plant response rating (0 to 100), Foxtail, Green",[2]; 62 g ai/ha,0
same,"Plant response rating (0 to 100), Foxtail, Green",[2]; 125 g ai/ha,0
same,"Plant response rating, Foxtail, Green",[2]; 250 g ai/ha,0
same,"Plant response rating (0 to 100), Bermudagrass",[3]; 31 g ai/ha,0
same,"Plant response rating (0 to 100), Bermudagrass",[3]; 62 g ai/ha,5
same,"Plant response rating (0 to 100), Bermudagrass",[3]; 125 g ai/ha,5
same,"Plant response rating, Bermudagrass",[3]; 250 g ai/ha,5
same,"Plant response rating (0 to 100), Cupgrass, Woolly",[4]; 31 g ai/ha,5
same,"Plant response rating (0 to 100), Cupgrass, Woolly",[4]; 62 g ai/ha,10
same,"Plant response rating (0 to 100), Cupgrass, Woolly",[4]; 125 g ai/ha,10
same,"Plant response rating, Cupgrass, Woolly",[4]; 250 g ai/ha,15
same,"Plant response rating (0 to 100), Goosegrass",[5]; 31 g ai/ha,0
same,"Plant response rating (0 to 100), Goosegrass",[5]; 62 g ai/ha,0
same,"Plant response rating (0 to 100), Goosegrass",[5]; 125 g ai/ha,0
same,"Plant response rating, Goosegrass",[5]; 250 g ai/ha,5
same,"Plant response rating (0 to 100), Windgrass",[6]; 62 g ai/ha,0
same,"Plant response rating (0 to 100), Windgrass",[6]; 125 g ai/ha,0
same,"Plant response rating, Windgrass",[6]; 250 g ai/ha,0
same,"Plant response rating (0 to 100), Bromegrass, Downy",[7]; 31 g ai/ha,0
same,"Plant response rating (0 to 100), Bromegrass, Downy",[7]; 62 g ai/ha,0
same,"Plant response rating (0 to 100), Bromegrass, Downy",[7]; 125 g ai/ha,0
same,"Plant response rating, Bromegrass, Downy",[7]; 250 g ai/ha,0
same,"Plant response rating (0 to 100), Barley",[8]; 31 g ai/ha,0
same,"Plant response rating (0 to 100), Barley",[8]; 62 g ai/ha,0
same,"Plant response rating (0 to 100), Barley",[8]; 125 g ai/ha,0
same,"Plant response rating, Barley",[8]; 250 g ai/ha,0
same,"Plant response rating (0 to 100), Surinam Grass",[9]; 62 g ai/ha,0
same,"Plant response rating (0 to 100), Surinam Grass",[9]; 125 g ai/ha,0
same,"Plant response rating, Surinam Grass",[9]; 250 g ai/ha,0
same,"Plant response rating (0 to 100), Deadnettle",[10]; 31 g ai/ha,0
same,"Plant response rating (0 to 100), Deadnettle",[10]; 62 g ai/ha,0
same,"Plant response rating (0 to 100), Deadnettle",[10]; 125 g ai/ha,0
same,"Plant response rating, Deadnettle",[10]; 250 g ai/ha,0
same,"Plant response rating (0 to 100), Canarygrass",[11]; 31 g ai/ha,0
same,"Plant response rating (0 to 100), Canarygrass",[11]; 62 g ai/ha,0
same,"Plant response rating (0 to 100), Canarygrass",[11]; 125 g ai/ha,0
same,"Plant response rating, Canarygrass",[11]; 250 g ai/ha,0
Clc1cc(Cl)cc(-c2n[nH]cc2C(=NNc2ccccc2Cl)c2ccccc2)c1 [Compound 66],"Plant response rating (0 to 100), Cocklebur",[1]; 62 g ai/ha,40
same,"Plant response rating (0 to 100), Cocklebur",[1]; 125 g ai/ha,90
same,"Plant response rating, Cocklebur",[1]; 500 g ai/ha,90
same,"Plant response rating (0 to 100), Foxtail, Green",[2]; 62 g ai/ha,0
same,"Plant response rating (0 to 100), Foxtail, Green",[2]; 125 g ai/ha,0
same,"Plant response rating, Foxtail, Green",[2]; 250 g ai/ha,0
same,"Plant response rating, Foxtail, Green",[2]; 500 g ai/ha,0
same,"Plant response rating (0 to 100), Bermudagrass",[3]; 62 g ai/ha,0
same,"Plant response rating (0 to 100), Bermudagrass",[3]; 125 g ai/ha,0
same,"Plant response rating, Bermudagrass",[3]; 250 g ai/ha,0
same,"Plant response rating, Bermudagrass",[3]; 500 g ai/ha,0
same,"Plant response rating (0 to 100), Cupgrass, Woolly",[4]; 62 g ai/ha,0
same,"Plant response rating (0 to 100), Cupgrass, Woolly",[4]; 125 g ai/ha,0
same,"Plant response rating, Cupgrass, Woolly",[4]; 250 g ai/ha,0
same,"Plant response rating, Cupgrass, Woolly",[4]; 500 g ai/ha,0
same,"Plant response rating (0 to 100), Goosegrass",[5]; 62 g ai/ha,0
same,"Plant response rating (0 to 100), Goosegrass",[5]; 125 g ai/ha,0
same,"Plant response rating, Goosegrass",[5]; 250 g ai/ha,0
same,"Plant response rating, Goosegrass",[5]; 500 g ai/ha,0
same,"Plant response rating (0 to 100), Windgrass",[6]; 62 g ai/ha,0
same,"Plant response rating (0 to 100), Windgrass",[6]; 125 g ai/ha,0
same,"Plant response rating, Windgrass",[6]; 250 g ai/ha,0
same,"Plant response rating, Windgrass",[6]; 500 g ai/ha,0
same,"Plant response rating (0 to 100), Bromegrass, Downy",[7]; 62 g ai/ha,0
same,"Plant response rating (0 to 100), Bromegrass, Downy",[7]; 125 g ai/ha,0
same,"Plant response rating, Bromegrass, Downy",[7]; 250 g ai/ha,0
same,"Plant response rating, Bromegrass, Downy",[7]; 500 g ai/ha,0
same,"Plant response rating (0 to 100), Barley",[8]; 62 g ai/ha,0
same,"Plant response rating (0 to 100), Barley",[8]; 125 g ai/ha,0
same,"Plant response rating, Barley",[8]; 250 g ai/ha,0
same,"Plant response rating, Barley",[8]; 500 g ai/ha,0
same,"Plant response rating (0 to 100), Surinam Grass",[9]; 62 g ai/ha,0
same,"Plant response rating (0 to 100), Surinam Grass",[9]; 125 g ai/ha,0
same,"Plant response rating, Surinam Grass",[9]; 250 g ai/ha,0
same,"Plant response rating, Surinam Grass",[9]; 500 g ai/ha,0
same,"Plant response rating (0 to 100), Deadnettle",[10]; 62 g ai/ha,0
same,"Plant response rating (0 to 100), Deadnettle",[10]; 125 g ai/ha,0
same,"Plant response rating, Deadnettle",[10]; 250 g ai/ha,0
same,"Plant response rating, Deadnettle",[10]; 500 g ai/ha,5
same,"Plant response rating (0 to 100), Canarygrass",[11]; 62 g ai/ha,0
same,"Plant response rating (0 to 100), Canarygrass",[11]; 125 g ai/ha,0
same,"Plant response rating, Canarygrass",[11]; 250 g ai/ha,0
same,"Plant response rating, Canarygrass",[11]; 500 g ai/ha,0
